Data as given in PMC9774488, “The ER Aminopeptidases, ERAP1 and ERAP2, synergize to self-modulate their respective activities” (Frontiers in Immunology, 2022).
pIC50: −log10 of the molar value. Where a SMILES comes first, the peptide text is derived from it.

Molecular target: ERAP2 (Homo sapiens, UniProt Q6P179)
Test: biochemical
Experimental: Substrate hydrolysis was assessed by measuring the fluorescence of free AMC at 14-s intervals, at 380nm and 460 nm excitation and emission wavelengths, respectively, in a Fluostar Optima Multiwave Plate Reader (BMG Labtec, Ortenberg, Germany).

ERAP2, sequence (Q6P179 whole entry): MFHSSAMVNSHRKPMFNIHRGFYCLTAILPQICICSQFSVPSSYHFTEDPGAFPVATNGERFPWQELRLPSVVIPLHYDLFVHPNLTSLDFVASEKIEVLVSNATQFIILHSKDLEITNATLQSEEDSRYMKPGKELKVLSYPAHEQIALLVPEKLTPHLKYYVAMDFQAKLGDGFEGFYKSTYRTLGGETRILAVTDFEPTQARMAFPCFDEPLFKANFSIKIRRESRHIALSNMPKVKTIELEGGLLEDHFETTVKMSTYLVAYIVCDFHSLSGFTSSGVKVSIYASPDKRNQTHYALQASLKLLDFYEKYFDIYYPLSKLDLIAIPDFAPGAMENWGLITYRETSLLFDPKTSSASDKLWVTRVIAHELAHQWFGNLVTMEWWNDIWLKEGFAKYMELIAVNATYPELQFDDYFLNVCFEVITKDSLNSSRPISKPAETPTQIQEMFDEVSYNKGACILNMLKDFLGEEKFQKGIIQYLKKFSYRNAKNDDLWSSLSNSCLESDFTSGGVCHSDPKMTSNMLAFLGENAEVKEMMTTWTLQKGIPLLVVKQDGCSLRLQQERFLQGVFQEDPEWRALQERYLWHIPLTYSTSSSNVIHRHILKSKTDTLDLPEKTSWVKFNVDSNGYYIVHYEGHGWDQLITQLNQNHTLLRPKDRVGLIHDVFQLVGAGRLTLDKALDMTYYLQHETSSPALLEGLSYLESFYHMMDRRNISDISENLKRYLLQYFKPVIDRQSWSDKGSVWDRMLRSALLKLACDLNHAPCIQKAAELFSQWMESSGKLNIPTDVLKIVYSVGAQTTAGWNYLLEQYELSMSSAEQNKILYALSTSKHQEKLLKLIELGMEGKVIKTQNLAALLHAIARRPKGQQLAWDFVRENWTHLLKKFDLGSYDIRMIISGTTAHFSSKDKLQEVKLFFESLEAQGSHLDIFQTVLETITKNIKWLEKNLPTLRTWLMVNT

## CC[C@H](C)[C@H](NC(=O)[C@H](CCC(N)=O)NC(=O)[C@H](Cc1ccccc1)NC(=O)[C@@H](NC(=O)[C@H](CC(=O)O)NC(=O)CNC(=O)[C@H](Cc1ccc(O)cc1)NC(=O)[C@H](CCCNC(=N)N)NC(=O)[C@H](CCCNC(=N)N)NC(=O)[C@H](C)NC(=O)[C@@H](N)CC(C)C)C(C)C)C(=O)O (H-LARRYGDVFQI-OH)
  pIC50: 4.73

## CC(C)C[C@H](NC(=O)[C@H](CCCCN)NC(=O)[C@H](CC(=O)O)NC(=O)CNC(=O)[C@H](Cc1ccccc1)NC(=O)[C@H](CCCNC(=N)N)NC(=O)[C@H](CCCNC(=N)N)NC(=O)[C@H](CC(C)C)NC(=O)[C@@H](N)CCC(N)=O)C(=O)N[C@@H](CC(N)=O)C(=O)N[C@@H](Cc1ccccc1)C(=O)O (H-QLRRFGDKLNF-OH)
  pIC50: 4.88

## CC(C)C[C@H](NC(=O)[C@H](Cc1ccc(O)cc1)NC(=O)[C@@H]1CCCN1C(=O)[C@H](CO)NC(=O)[C@H](CCCCN)NC(=O)CNC(=O)[C@H](Cc1ccc(O)cc1)NC(=O)[C@H](CCCNC(=N)N)NC(=O)[C@H](C)NC(=O)[C@H](CC(C)C)NC(=O)[C@@H](N)CO)C(=O)N[C@@H](Cc1ccc(O)cc1)C(=O)O (H-SLARYGKSPYLY-OH)
  pIC50: 5.54
